Tests used:
NURR-1/RXRα = molecular target: T1, NURR-1/RXRα (Homo sapiens, UniProt P19793); assay: Transactivation test, NURR-1-Gal4/RXRα, luciferase reporter in Cos-7 cells; format: cell-based; details: for Emax: COS-7, induction level relative to reference XCT0135908 at 2×10^−5 M (=100%), read-out: hNurr1_RXRaFL Emax (%); for EC50: Cos-7 cells, NURR-1-Gal4/RXRα, luciferase reporter, read-out: hNurr1_RXRaFL EC50
T1 construct: expressed in transfected cells; host or cells: Cos-7 cells

NURR-1/RXRγ = molecular target: T2, NURR-1/RXRγ (Homo sapiens, UniProt P48443); assay: Transactivation test, NURR-1-Gal4/RXRγ, luciferase reporter in Cos-7 cells; format: cell-based; details: for Emax: COS-7, induction level relative to reference XCT0135908 at 2×10^−5 M (=100%), read-out: hNurr1_RXRgFL Emax (%); for EC50: Cos-7 cells, NURR-1-Gal4/RXRγ, luciferase reporter, read-out: hNurr1_RXRgFL EC50
T2 construct: expressed in transfected cells; host or cells: Cos-7 cells
T2 sequence (P48443 whole entry, the tested form may be a part): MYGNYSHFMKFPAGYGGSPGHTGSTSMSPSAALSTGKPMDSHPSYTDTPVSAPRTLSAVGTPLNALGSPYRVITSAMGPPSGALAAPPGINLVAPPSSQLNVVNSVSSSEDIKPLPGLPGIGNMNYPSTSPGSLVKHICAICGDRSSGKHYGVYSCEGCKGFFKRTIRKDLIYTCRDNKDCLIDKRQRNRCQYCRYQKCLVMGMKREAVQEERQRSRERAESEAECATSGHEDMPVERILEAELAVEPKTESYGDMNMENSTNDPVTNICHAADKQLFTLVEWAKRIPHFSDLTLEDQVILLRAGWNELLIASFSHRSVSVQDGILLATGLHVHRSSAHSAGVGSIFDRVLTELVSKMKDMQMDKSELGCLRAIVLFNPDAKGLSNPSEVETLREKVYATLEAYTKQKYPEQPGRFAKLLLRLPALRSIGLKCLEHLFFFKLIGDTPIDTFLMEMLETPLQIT
T2 sequence (P43354 whole entry partner, the tested form may be a part): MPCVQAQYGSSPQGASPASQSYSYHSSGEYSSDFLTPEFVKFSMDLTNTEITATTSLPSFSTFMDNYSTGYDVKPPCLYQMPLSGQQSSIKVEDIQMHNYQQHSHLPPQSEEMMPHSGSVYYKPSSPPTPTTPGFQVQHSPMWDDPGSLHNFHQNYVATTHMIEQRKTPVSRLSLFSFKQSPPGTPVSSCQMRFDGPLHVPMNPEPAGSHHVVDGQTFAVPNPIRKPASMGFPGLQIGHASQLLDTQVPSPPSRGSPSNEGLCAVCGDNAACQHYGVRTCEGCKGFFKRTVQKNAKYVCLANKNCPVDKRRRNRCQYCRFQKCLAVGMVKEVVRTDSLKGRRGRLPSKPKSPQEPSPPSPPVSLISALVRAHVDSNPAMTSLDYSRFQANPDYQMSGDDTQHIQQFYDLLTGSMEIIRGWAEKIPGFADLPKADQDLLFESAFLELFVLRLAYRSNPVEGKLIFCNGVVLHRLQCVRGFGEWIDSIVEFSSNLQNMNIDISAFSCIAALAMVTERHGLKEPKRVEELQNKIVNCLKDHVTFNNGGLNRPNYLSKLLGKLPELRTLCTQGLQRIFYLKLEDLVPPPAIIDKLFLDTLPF
T2 sequence (P04386 1-147 partner limits assumed): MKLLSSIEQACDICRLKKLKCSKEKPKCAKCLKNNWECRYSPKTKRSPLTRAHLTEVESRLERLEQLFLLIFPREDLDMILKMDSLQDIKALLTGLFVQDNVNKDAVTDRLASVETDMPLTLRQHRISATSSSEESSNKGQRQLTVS

T1 sequence (P19793 whole entry, the tested form may be a part): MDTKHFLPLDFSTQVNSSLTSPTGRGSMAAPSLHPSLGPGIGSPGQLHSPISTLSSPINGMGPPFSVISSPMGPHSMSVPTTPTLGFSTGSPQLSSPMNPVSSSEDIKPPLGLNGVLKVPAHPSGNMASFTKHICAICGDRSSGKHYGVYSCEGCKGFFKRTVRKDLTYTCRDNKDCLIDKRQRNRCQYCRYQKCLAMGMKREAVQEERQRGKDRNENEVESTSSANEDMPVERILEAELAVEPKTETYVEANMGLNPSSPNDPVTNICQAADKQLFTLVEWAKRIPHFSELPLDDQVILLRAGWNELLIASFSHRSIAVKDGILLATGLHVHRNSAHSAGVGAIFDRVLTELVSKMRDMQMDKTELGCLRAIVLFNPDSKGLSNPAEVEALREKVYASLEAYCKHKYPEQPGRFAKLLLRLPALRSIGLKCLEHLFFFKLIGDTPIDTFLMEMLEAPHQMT
T1 sequence (P43354 whole entry partner, the tested form may be a part): as the sequence (P43354 whole entry partner, the tested form may be a part) above
T1 sequence (P04386 1-147 partner limits assumed): as the sequence (P04386 1-147 partner limits assumed) above

SMILES	Emax (NURR-1/RXRα)	EC50 (NURR-1/RXRα)	Emax (NURR-1/RXRγ)	EC50 (NURR-1/RXRγ)	melting point
O=C(O)C1CN(c2cccc(-c3cc(C(F)(F)F)nc4cc(Cl)ccc34)c2)C1 [Example 82, 1-[3-[7-chloro-2-(trifluoromethyl)-4-quinolyl]phenyl]azetidine-3-carboxylic acid]	110%	31 nM	99%	72 nM	98 to 101 °C
Cc1cc2c(cc1-c1cccc(N3CC(C(=O)O)C3)c1)C(C)(C)CCC2(C)C [Example 85, 1-[3-(1,1,4,4,7-pentamethyltetralin-6-yl)phenyl]azetidine-3-carboxylic acid]	112%	19 nM	116%	49 nM	130 to 141 °C
CCc1cc2c(cc1-c1cccc(N3CC(C(=O)O)C3)c1)C(C)(C)CCC2(C)C [Example 86, 1-[3-(7-ethyl-1,1,4,4,-tetramethyltetralin-6-yl)phenyl]azetidine-3-carboxylic acid]	107%	6 nM	97%	16 nM	78 to 88 °C
Cc1cc(N2CC(C(=O)O)C2)cc(N2CC(C)(C)Oc3cc(C(F)(F)F)ccc32)c1 [Example 116, 1-[3-[2,2-dimethyl-7-(trifluoromethyl)-3H-1,4-benzoxazin-4-yl]-5-methylphenyl]azetidine-3-carboxylic acid]	111%	2 nM	115%	1 nM	93 to 98 °C
CC1(C)CN(c2cccc(N3CC(C(=O)O)C3)c2)c2ccccc2O1 [Example 119, 1-[3-(2,2-dimethyl-3H-1,4-benzoxazin-4-yl)phenyl]azetidine-3-carboxylic acid]	101%	238 nM	94%	512 nM	59 to 64 °C
CCC1Oc2cc(C(F)(F)F)ccc2N(c2cccc(N3CC(C(=O)O)C3)c2)C1=O (stereo not shown) [Example 123, 1-[3-[2-ethyl-3-oxo-7-(trifluromethyl)-1,4-benzoxazin-4-yl]phenyl]azetidine-3-carboxylic acid]	90%	121 nM	77%	37 nM	148 to 152 °C
COCCNCc1cn(-c2cccc(N3CC(C(=O)O)C3)c2)c2ccc(C(F)(F)F)cc12 [Example 133, 1-[3-[3-[(2-methoxyethylamino)methyl]-5-(trifluoromethyl)indol-1-yl]phenyl]azetidine-3-carboxylic acid]	93%	1020 nM	61%	1980 nM	116 to 121 °C
O=C(O)C1CN(c2cccc(-n3cc(S(=O)(=O)c4ccccc4)c4cc(C(F)(F)F)ccc43)c2)C1 [Example 135, 1-[3-[3-(benzenesulfonyl)-5-(trifluoromethyl)indol-1-yl]phenyl]azetidine-3-carboxylic acid]	77%	34 nM	83%	65 nM	150 to 153 °C
O=C(O)C1CN(c2cccc(N3C(=O)C4(CCCC4)c4cc(C(F)(F)F)ccc43)c2)C1 [Example 142, 1-[3-[2′-oxo-5′-(trifluoromethyl)spiro[cyclopentane-1,3′-indoline]-1′-yl]phenyl]azetidine-3-carboxylic acid]	130%	11 nM	148%	22 nM	87 to 91 °C
O=C(O)C1CN(c2cccc(N3c4ccc(C(F)(F)F)cc4C4CC43)c2)C1 (stereo not shown) [Example 143, 1-[3-[5-(trifluoromethyl)-1a,6b-dihydro-1H-cyclopropa[b]indol-2-yl]phenyl]azetidine-3-carboxylic acid]	97%	18 nM	–	45 nM	67 to 71 °C

Further molecules by falling EC50 (NURR-1/RXRα), results first:

Emax (NURR-1/RXRα)	EC50 (NURR-1/RXRα)	Emax (NURR-1/RXRγ)	EC50 (NURR-1/RXRγ)	melting point	SMILES
96%	326 nM	101%	435 nM	70 to 88 °C	CC(C)c1cc2c(c(-c3cccc(N4CC(C(=O)O)C4)c3)c1)C(=O)CC(C)(C)O2 [Example 71, 1-[3-(7-isopropyl-2,2-dimethyl-4-oxochroman-5-yl)phenyl]azetidine-3-carboxylic acid]
89%	227 nM	108%	664 nM	88 to 95 °C	CC(C)N(C)Cc1cn(-c2cccc(N3CC(C(=O)O)C3)c2)c2ccc(C(F)(F)F)cc12 [Example 134, 1-[3-[3-[[iisopropyl(methyl)amino]methyl]-5-(trifluoromethyl)indol-1-yl]phenyl]azetidine-3-carboxylic acid]
92%	140 nM	113%	199 nM	154 to 162 °C	O=C(O)C1CN(c2cccc(N3CC4(CCOCC4)c4cc(C(F)(F)F)ccc43)c2)C1 [Example 141, 1-[3-[5-(trifluoromethyl)spiro[indoline-3,4′-tetrahydropyran]-1-yl]phenyl]azetidine-3-carboxylic acid]
97%	61 nM	132%	133 nM	93 to 98 °C	O=C(O)C1CN(c2cccc(-n3cc(CN4CCOCC4)c4cc(C(F)(F)F)ccc43)c2)C1 [Example 132, 1-[3-[3-(morpholinomethyl)-5-(trifluoromethyl)indol-1-yl]phenyl]azetidine-3-carboxylic acid]
108%	20 nM	112%	34 nM	80 to 86 °C	CC1(C)Oc2cc(C(F)(F)F)ccc2N(c2cccc(N3CC(C(=O)O)C3)c2)C1=O [Example 120, 1-[3-[2,2-dimethyl-3-oxo-7-(trifluoremethyl)-1,4-benzoxazin-4-yl]phenyl]azetidine-3-carboxylic acid]
137%	19 nM	139%	29 nM	62 to 70 °C	CC1COc2cc(C(F)(F)F)ccc2N1c1cccc(N2CC(C(=O)O)C2)c1 (stereo not shown) [Example 124, 1-[3-[3-methyl-7-(trifluoromethyl)-2,3-dihydro-1,4-benzoxazin-4-yl]phenyl]azetidine-3-carboxyltc add]
97%	7 nM	112%	40 nM	63 to 69 °C	CCc1noc2cc(C(C)C)cc(-c3cccc(N4CC(C(=O)O)C4)c3)c12 [Example 72, 1-[3-(3-ethyl-6-isopropy;-1,2-benzoxazol-4-yl)phenyl]azetidine-3-carboxylic acid]
110%	3 nM	105%	6 nM	63 to 67 °C	O=C(O)C1CN(c2cccc(-n3cc(CC4CCOC4)c4cc(C(F)(F)F)ccc43)c2)C1 (stereo not shown) [Example 128, 1-[3-[3-(tetrahydrofuran-3-ylmethyl)-5-(trifluromethyl)indol-1-yl]phenyl]adetidine-3-carboxylic acid]
128%	1 nM	116%	3 nM	58 to 64 °C	O=C(O)C1CN(c2cccc(-n3cc(CC4CCC4)c4cc(C(F)(F)F)ccc43)c2)C1 [Example 126, 1-[3-[3-(cyclobutylmethyl)-5-(trifluromethyl)indol-1-yl]phenyl]azetidine-3-carboxylc acid]
